Measured values from US10072001B2, “Tank-binding kinase inhibitor compounds” (Gilead Sciences, Inc., priority 2014, dated 2018).
pIC50: −log10 of the molar value.

What was measured:
IKKε = IKKε (Homo sapiens (Human), UniProt Q14164); assay: TR-FRET kinase assay, IKKε; assay type: biochemical; details: full length recombinant IKKε 0.3 nM, 2x Km ATP, 1 μM peptide, 240 min at 25° C.; geometric mean of minimum four determinations
Text: Biological Assay for TBK1 and IKKs:

TBK1 = TBK1 (Homo sapiens (Human), UniProt Q9UHD2); assay: TR-FRET kinase assay, TBK1; details: read-out: TBK1-IC50; full length recombinant TBK1 2.5 nM, 2x Km ATP, 1 μM peptide, 240 min at 25° C.; geometric mean of minimum four determinations
TBK1, sequence (Q9UHD2 whole entry): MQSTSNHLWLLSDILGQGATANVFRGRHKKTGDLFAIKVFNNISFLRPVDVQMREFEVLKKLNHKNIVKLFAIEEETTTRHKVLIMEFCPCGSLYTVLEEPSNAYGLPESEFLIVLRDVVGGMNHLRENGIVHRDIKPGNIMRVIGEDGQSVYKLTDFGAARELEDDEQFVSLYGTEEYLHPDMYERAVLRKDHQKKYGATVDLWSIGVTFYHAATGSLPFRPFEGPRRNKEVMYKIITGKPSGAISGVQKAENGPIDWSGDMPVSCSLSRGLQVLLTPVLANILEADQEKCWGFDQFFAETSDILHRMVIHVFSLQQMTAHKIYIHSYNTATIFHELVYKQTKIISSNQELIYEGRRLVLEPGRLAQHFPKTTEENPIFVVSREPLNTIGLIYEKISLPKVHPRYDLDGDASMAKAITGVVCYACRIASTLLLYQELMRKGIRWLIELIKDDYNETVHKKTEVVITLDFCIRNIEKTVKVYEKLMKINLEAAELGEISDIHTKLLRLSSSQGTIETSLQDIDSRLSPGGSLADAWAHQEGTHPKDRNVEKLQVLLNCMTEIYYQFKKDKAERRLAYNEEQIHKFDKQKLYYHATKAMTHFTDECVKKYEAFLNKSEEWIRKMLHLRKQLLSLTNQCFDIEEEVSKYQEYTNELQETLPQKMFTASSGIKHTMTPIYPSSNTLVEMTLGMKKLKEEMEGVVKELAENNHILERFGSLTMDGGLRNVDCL
Description: Enzymatic activity of IKKε and TBK1 was measured using a homogeneous time resolved fluorescence resonance energy transfer (TR-FRET) assay that monitors enzyme dependent phosphorylation of a biotinylated serine/threonine peptide substrate. […] TBK1 and IKKs were expressed and purified as full length recombinant proteins. Detection reagents for the assay were purchased from Cisbio. […] After an assay reaction time of 240 minutes at 25° C., reactions were terminated with EDTA.
Amount of phosphorylated peptide was determined by the addition of 125 nM streptavidin XL665 and europium cryptate labeled anti-phospho monoclonal antibody and the resulting TR-FRET signal was recorded on an Envision plate reader (Ex: 340 nm; Em: 615/665 nm; 100 μs delay and 200 μs read window). […] All IC50 values represent geometric mean values of a minimum of four determinations.

IKKε, sequence (Q14164 whole entry): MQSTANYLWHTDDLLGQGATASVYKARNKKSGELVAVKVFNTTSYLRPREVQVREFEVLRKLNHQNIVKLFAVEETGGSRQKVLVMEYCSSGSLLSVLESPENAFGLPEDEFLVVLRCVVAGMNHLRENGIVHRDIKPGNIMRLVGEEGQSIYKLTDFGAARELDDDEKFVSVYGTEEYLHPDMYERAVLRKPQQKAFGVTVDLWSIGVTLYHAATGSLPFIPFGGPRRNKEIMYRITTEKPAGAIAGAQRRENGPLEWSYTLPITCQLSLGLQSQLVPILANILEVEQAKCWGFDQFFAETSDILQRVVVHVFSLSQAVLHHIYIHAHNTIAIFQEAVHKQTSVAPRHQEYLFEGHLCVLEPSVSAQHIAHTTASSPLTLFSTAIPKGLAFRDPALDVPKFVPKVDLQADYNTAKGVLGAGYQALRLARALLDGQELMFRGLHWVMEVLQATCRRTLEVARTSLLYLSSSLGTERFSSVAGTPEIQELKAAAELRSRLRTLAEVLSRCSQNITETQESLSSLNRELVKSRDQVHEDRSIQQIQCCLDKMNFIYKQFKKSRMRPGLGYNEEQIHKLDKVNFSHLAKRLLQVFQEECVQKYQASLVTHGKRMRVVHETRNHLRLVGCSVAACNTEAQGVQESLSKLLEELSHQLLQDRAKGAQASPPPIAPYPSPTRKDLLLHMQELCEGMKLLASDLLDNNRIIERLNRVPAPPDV

Row | SMILES | pIC50 (IKKε) | pIC50 (TBK1)
1 | COc1ccc(-c2cc3c(-c4ccc(OC5CCN(C(=O)CO)CC5)c(C#N)c4)ncnc3[nH]2)c(C)c1 [Example 131, 2-((1-(2-hydroxyacetyl)piperidin-4-yl)oxy)-5-(6-(4-methoxy-2-methylphenyl)-7H-pyrrolo[2,3-d]pyrimidin-4-yl)benzonitrile] | 7.91 | 8.25
2 | COc1ccc(C#N)cc1-c1ncnc2[nH]c(-c3ccc(N4CCOCC4)cc3)cc12 [Example 133, 4-methoxy-3-(6-(4-morpholinophenyl)-7H-pyrrolo[2,3-d]pyrimidin-4-yl)benzonitrile] | 6.00 | 6.00
3 | COc1cc(-c2cc3c(-c4ccc(OC5CCOCC5)c(C#N)c4)ncnc3[nH]2)ccc1N1CCN(C(=O)CO)CC1 [Example 134, 5-(6-(4-(4-(2-hydroxyacetyl)piperazin-1-yl)-3-methoxyphenyl)-7H-pyrrolo[2,3-d]pyrimidin-4-yl)-2-((tetrahydro-2H-pyran-4-yl)oxy)benzonitrile] | 8.22 | 8.96
4 | COc1cc(-c2cc3c(-c4ccc(OC5CCOCC5)c(C#N)c4)ncnc3[nH]2)ccc1N1CCN(S(C)(=O)=O)CC1 [Example 135, 5-(6-(3-methoxy-4-(4-(methylsulfonyl)piperazin-1-yl)phenyl)-7H-pyrrolo[2,3-d]pyrimidin-4-yl)-2-((tetrahydro-2H-pyran-4-yl)oxy)benzonitrile] | 8.13 | 8.64
5 | COc1cc(N2CCOCC2)ccc1-c1cc2c(-c3ccc(OC4CCOCC4)c(C#N)c3)ncnc2[nH]1 [Example 137, 5-(6-(2-methoxy-4-morpholinophenyl)-7H-pyrrolo[2,3-d]pyrimidin-4-yl)-2-((tetrahydro-2H-pyran-4-yl)oxy)benzonitrile] | 7.32 | 8.01
6 | N#Cc1cc(-c2ncnc3[nH]c(-c4ccc(OCCN5CCCC5)cc4)cc23)ccc1OCC1CC1 [Example 138, 2-(cyclopropylmethoxy)-5-(6-(4-(2-(pyrrolidin-1-yl)ethoxy)phenyl)-7H-pyrrolo[2,3-d]pyrimidin-4-yl)benzonitrile] | 8.41 | 8.23
7 | COc1cc(-c2cc3c(-c4ccc(OC5CCS(=O)(=O)CC5)c(C#N)c4)ncnc3[nH]2)ccc1N1CCN(C2COC2)CC1 [Example 139, 2-((1,1-dioxidotetrahydro-2H-thiopyran-4-yl)oxy)-5-(6-(3-methoxy-4-(4-(oxetan-3-yl)piperazin-1-yl)phenyl)-7H-pyrrolo[2,3-d]pyrimidin-4-yl)benzonitrile] | 7.60 | 8.43
8 | COc1cc(-c2cc3c(-c4ccc(OC5CCNCC5(F)F)c(C#N)c4)ncnc3[nH]2)ccc1N1CCN(C2COC2)CC1 (stereo not drawn) [Example 140, 2-((3,3-difluoropiperidin-4-yl)oxy)-5-(6-(3-methoxy-4-(4-(oxetan-3-yl)piperazin-1-yl)phenyl)-7H-pyrrolo[2,3-d]pyrimidin-4-yl)benzonitrile] | 7.48 | 8.45
9 | COc1cc(-c2cc3c(-c4ccc(OC5CCN(C(=O)CO)CC5(F)F)c(C#N)c4)ncnc3[nH]2)ccc1N1CCN(C2COC2)CC1 (stereo not drawn) [Example 141, 2-((3,3-difluoro-1-(2-hydroxyacetyl)piperidin-4-yl)oxy)-5-(6-(3-methoxy-4-(4-(oxetan-3-yl)piperazin-1-yl)phenyl)-7H-pyrrolo[2,3-d]pyrimidin-4-yl)benzonitrile] | 9.16 | 9.12
10 | COc1cc(-c2cc3c(-c4ccc(N5CC[C@@H](O)C5)c(C#N)c4)ncnc3[nH]2)ccc1N1CCN(C2COC2)CC1 [Example 142, (R)-2-(3-hydroxypyrrolidin-1-yl)-5-(6-(3-methoxy-4-(4-(oxetan-3-yl)piperazin-1-yl)phenyl)-7H-pyrrolo[2,3-d]pyrimidin-4-yl)benzonitrile] | 7.83 | 8.69
11 | COc1cc(-c2cc3c(-c4ccc(OC5CCOCC5)c(C#N)c4)ncnc3[nH]2)ccc1N1CCN(C2COC2)CC1 [Example 143, 5-(6-(3-methoxy-4-(4-(oxetan-3-yl)piperazin-1-yl)phenyl)-7H-pyrrolo[2,3-d]pyrimidin-4-yl)-2-((tetrahydro-2H-pyran-4-yl)oxy)benzonitrile] | 8.16 | 8.99
12 | COc1cc(-c2cc3c(-c4ccc(O[C@H]5CCNC[C@H]5F)c(C#N)c4)ncnc3[nH]2)ccc1N1CCN(C2COC2)CC1 [Example 144, 2-(((3R,4S)-3-fluoropiperidin-4-yl)oxy)-5-(6-(3-methoxy-4-(4-(oxetan-3-yl)piperazin-1-yl)phenyl)-7H-pyrrolo[2,3-d]pyrimidin-4-yl)benzonitrile] | 7.19 | 8.21

Further lines, results first:

Row | pIC50 (IKKε) | pIC50 (TBK1) | SMILES
13 | 9.32 | 8.98 | COc1cc(-c2cc3c(-c4ccc(O[C@H]5CCN(C(=O)CO)C[C@H]5F)c(C#N)c4)ncnc3[nH]2)ccc1N1CCN(C2COC2)CC1 [Example 145, 2-(((3R,4S)-3-fluoro-1-(2-hydroxyacetyl)piperidin-4-yl)oxy)-5-(6-(3-methoxy-4-(4-(oxetan-3-yl)piperazin-1-yl)phenyl)-7H-pyrrolo[2,3-d]pyrimidin-4-yl)benzonitrile]
14 | 7.63 | 8.33 | COc1ccc(-c2nc3c(-c4ccc(OC5CCOCC5)c(C#N)c4)ncnc3[nH]2)cc1 [Example 146, 5-(8-(4-methoxyphenyl)-9H-purin-6-yl)-2-((tetrahydro-2H-pyran-4-yl)oxy)benzonitrile]
15 | 6.69 | 6.73 | N#Cc1cc(-c2ccnc3[nH]c(C#CCO)cc23)ccc1OC1CCOCC1 [Example 148, 5-(2-(3-hydroxyprop-1-yn-1-yl)-1H-pyrrolo[2,3-b]pyridin-4-yl)-2-((tetrahydro-2H-pyran-4-yl)oxy)benzonitrile]
16 | 8.64 | 8.81 | CC(C)(O)c1ccc(-c2cc3c(-c4ccc(O[C@@H]5CCN(C(=O)CO)C5)c(C#N)c4)ccnc3[nH]2)cc1 [Example 149, (R)-2-((1-(2-hydroxyacetyl)pyrrolidin-3-yl)oxy)-5-(2-(4-(2-hydroxypropan-2-yl)phenyl)-1H-pyrrolo[2,3-b]pyridin-4-yl)benzonitrile]
17 | 7.73 | 7.95 | C=C(C)c1ccc(-c2cc3c(-c4ccc(O[C@@H]5CCN(C(=O)CO)C5)c(C#N)c4)ccnc3[nH]2)cc1 [Example 150, (R)-2-((1-(2-hydroxyacetyl)pyrrolidin-3-yl)oxy)-5-(2-(4-(prop-1-en-2-yl)phenyl)-1H-pyrrolo[2,3-b]pyridin-4-yl)benzonitrile]
18 | 6.92 | 7.37 | CC(C)(O)c1ccc(-c2cc3c(-c4ccc(O[C@@H]5CCNC5)c(C#N)c4)ccnc3[nH]2)cc1 [Example 151, (R)-5-(2-(4-(2-hydroxypropan-2-yl)phenyl)-1H-pyrrolo[2,3-b]pyridin-4-yl)-2-(pyrrolidin-3-yloxy)benzonitrile]
19 | 7.73 | 8.23 | N#Cc1cc(-c2ccnc3[nH]c(-c4ccc(N5CCOCC5)cc4)cc23)ccc1OC1CCN(C(=O)CN)CC1 [Example 152, 2-((1-(2-aminoacetyl)piperidin-4-yl)oxy)-5-(2-(4-morpholinophenyl)-1H-pyrrolo[2,3-b]pyridin-4-yl)benzonitrile]
20 | 6.71 | 7.29 | CC(=O)N1CC(Oc2ccc(-c3ccnc4[nH]c(-c5ccc(N6CCOCC6)cc5)cc34)cc2C#N)C1 [Example 153, 2-((1-acetylazetidin-3-yl)oxy)-5-(2-(4-morpholinophenyl)-1H-pyrrolo[2,3-b]pyridin-4-yl)benzonitrile]
21 | 6.84 | 7.49 | N#Cc1cc(-c2ccnc3[nH]c(-c4ccc(N5CCOCC5)cc4)cc23)ccc1OC1CN(C(=O)CO)C1 [Example 154, 2-((1-(2-hydroxyacetyl)azetidin-3-yl)oxy)-5-(2-(4-morpholinophenyl)-1H-pyrrolo[2,3-b]pyridin-4-yl)benzonitrile]
22 | 7.85 | 8.56 | N#Cc1cc(-c2ncnc3[nH]c(-c4ccc(N5CCOCC5)c(F)c4)cc23)ccc1OC1CCOCC1 [Example 156, 5-(6-(3-fluoro-4-morpholinophenyl)-7H-pyrrolo[2,3-d]pyrimidin-4-yl)-2-((tetrahydro-2H-pyran-4-yl)oxy)benzonitrile]
23 | 8.84 | 9.07 | N#Cc1cc(-c2ncnc3[nH]c(-c4ccc(N5CCN(C6COC6)CC5)cc4)cc23)ccc1OC1CCN(C(=O)CO)CC1 [Example 157, 2-((1-(2-hydroxyacetyl)piperidin-4-yl)oxy)-5-(6-(4-(4-(oxetan-3-yl)piperazin-1-yl)phenyl)-7H-pyrrolo[2,3-d]pyrimidin-4-yl)benzonitrile]
24 | 8.62 | 8.99 | N#Cc1cc(-c2ncnc3[nH]c(-c4ccc(N5CCOCC5)c(F)c4)cc23)ccc1OC1CCN(C(=O)CO)CC1 [Example 158, 5-(6-(3-fluoro-4-morpholinophenyl)-7H-pyrrolo[2,3-d]pyrimidin-4-yl)-2-((1-(2-hydroxyacetyl)piperidin-4-yl)oxy)benzonitrile]
25 | 8.29 | 8.66 | COC(=O)c1ccc(-c2cc3c(-c4ccc(OC5CCN(C(=O)CO)CC5)c(C#N)c4)ncnc3[nH]2)cc1 [Example 159, Methyl 4-(4-(3-cyano-4-((1-(2-hydroxyacetyl)piperidin-4-yl)oxy)phenyl)-7H-pyrrolo[2,3-d]pyrimidin-6-yl)benzoate]
26 | 8.63 | 8.88 | N#Cc1cc(-c2ncnc3[nH]c(-c4ccc(C(=O)N5CCOCC5)cc4)cc23)ccc1OC1CCN(C(=O)CO)CC1 [Example 160, 2-((1-(2-Hydroxyacetyl)piperidin-4-yl)oxy)-5-(6-(4-(morpholine-4-carbonyl)phenyl)-7H-pyrrolo[2,3-d]pyrimidin-4-yl)benzonitrile]
27 | 8.95 | 8.81 | CN1CCN(C(=O)c2ccc(-c3cc4c(-c5ccc(OC6CCN(C(=O)CO)CC6)c(C#N)c5)ncnc4[nH]3)cc2)CC1 [Example 161, 2-((1-(2-Hydroxyacetyl)piperidin-4-yl)oxy)-5-(6-(4-(4-methylpiperazine-1-carbonyl)phenyl)-7H-pyrrolo[2,3-d]pyrimidin-4-yl)benzonitrile]
